These results are taken from patent US9371336B2, “Compounds for treating spinal muscular atrophy” (PTC Therapeutics Inc., priority 2012, dated 2016).

The melting point is the temperature of the solid-liquid transition.

Data set [1] concerns Smn protein. In words: Smn protein assay (HTRF) in cultured cells (SMA patient fibroblasts GM03813). In kind it is cell-based, human. Particulars: for Smn protein expression: SMA Type 1 patient fibroblast cells, 48 hour, SMN HTRF assay (FIG. 6); for EC1.5x for Smn protein expression: SMA patient fibroblast cells (GM03813), HTRF, 7-point concentration data, concentration producing 1.5 times Smn protein vs DMSO vehicle control; for EC1.5x for Smn protein expression / maximum fold (Fold) increase of Smn protein: 48 hours; for maximum fold (Fold) increase of Smn protein: SMA patient fibroblast cells, 7-point concentration curve, relative to vehicle control. Summed up:
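SMA patient fibroblasts (GM03813) were treated 48 h at 37° C with a 7-point, 3.16-fold compound series in triplicate, then lysed in RIPA. Smn was read by HTRF (anti-SMN d2/kryptate, 665/620 nm ratio). ΔF versus blank was divided by vehicle ΔF to give fold Smn increase.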
In general terms: TR-FRET usually uses a lanthanide donor and a delayed reading to cut background.

The test system of data set [2] is SMN2 minigene mRNA (SMN2-A minigene construct). In words: SMN2 minigene mRNA splicing RT-qPCR assay in cultured cells. In kind it is cell-based, human. Particulars: for inclusion of exon 7 of SMN2 into mRNA / SMN2 minigene FL mRNA relative to vehicle control: HEK293H cells with SMN2-A minigene, 24 hr; for inclusion of exon 7 of SMN2 into mRNA: relative to untreated cells (FIG. 3); for SMN2 minigene FL mRNA relative to vehicle control: rising concentrations, RT-qPCR (FIG. 3); for EC (1.5-fold): Homo sapiens, HEK293-H, HEK293H cells stably transfected with SMN2-A minigene, 24 hours, 7-point concentration data, concentration giving 1.5-fold SMN2 full length mRNA relative to vehicle-treated cells, read-out: EC1.5x for production of full length SMN2 mRNA. Summed up: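 Full-length SMN2 minigene mRNA, measured by exon 7/luciferase-specific RT-qPCR that excludes endogenous SMN1/SMN2, was normalized to GAPDH and expressed relative to vehicle-treated cells via modified ΔΔCt. Stably transfected HEK293H cells received compound (7-point, 3.16-fold series, duplicates) for 24 h at 37 °C.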
Background: In qPCR the cycle at which signal appears reflects the starting amount.

In the case of `Cc1ccc2nc(-c3cc4ccc(N5CCN(C)CC5)nc4oc3=O)cn2c1` [Cpd 27, 3-(6-methylimidazo[1,2-a]pyridin-2-yl)-7-(4-methylpiperazin-1-yl)-2H-pyrano[2,3-b]pyridin-2-one], the melting point was 260 to 264 °C. In data set [1], the Smn protein expression entry is given as “dose dependent increase in Smn protein expression”; the “EC1.5x for Smn protein expression” value was “** (an EC1.5× between >1 and ≦3 μM is indicated by two stars (**))”; the “maximum fold (Fold) increase of Smn protein” value was “**** (a fold increase between >1.5 and ≦1.65 is indicated by four stars (****))”. In addition, in data set [2], the “inclusion of exon 7 of SMN2 into mRNA” value is “fully restored exon 7 inclusion”, the “SMN2 minigene FL mRNA relative to vehicle control” value was “increased SMN2 minigene FL mRNA at low concentrations” and the EC (1.5-fold) lay in the range of 0.1 to 0.3 µM.
For the molecule `CN1CCN(c2ccc3cc(-c4nc5c(Cl)cccc5s4)c(=O)oc3n2)CC1` [Cpd 5, 3-(4-chloro-1,3-benzothiazol-2-yl)-7-(4-methylpiperazin-1-yl)-2H-pyrano[2,3-b]pyridin-2-one], the melting point was in the range of 258 to 260 °C. For the same molecule, in data set [1], the Smn protein expression result was “dose dependent increase in Smn protein expression”; the “EC1.5x for Smn protein expression” value is “*** (an EC1.5× between >0.3 μM and ≦1 μM is indicated by three stars (***))”; the “maximum fold (Fold) increase of Smn protein” value was “**** (a fold increase between >1.5 and ≦1.65 is indicated by four stars (****))”. For the same molecule, in data set [2], the “inclusion of exon 7 of SMN2 into mRNA” value is listed as “fully restored exon 7 inclusion”, the “SMN2 minigene FL mRNA relative to vehicle control” value was “increased SMN2 minigene FL mRNA at low concentrations” and the EC (1.5-fold) was 0.1 to 0.3 µM.
